Experimental data: PMC10528299, “Targeting FAK/PYK2 with SJP1602 for Anti-Tumor Activity in Triple-Negative Breast Cancer” (Current Issues in Molecular Biology, 2023)

Legend:
Assay in all cases: Eurofins kinase profiling
Type in all cases: biochemical
ATR/ATRIP(h) = target: T1, ATR/ATRIP(h) (Homo sapiens, UniProt Q13535); details: read-out: residual kinase activity ATR/ATRIP(h)
T1 construct: purchased Eurofins KinaseProfiler
Procedure: (§1) The kinase profiling analysis was performed at Eurofins (Poitiers, France). A total of 110 kinase assays were carried out according to Eurofins’ standard protocols. For protein kinase assays, the kinase activity was measured using Eurofins’ KinaseProfiler radiometric assay. In this assay, a panel of kinases was incubated with the test compound SJP1602 at a concentration of 1 µM, and the kinase activity was determined using radiolabeled phosphate as a substrate. Lipid and atypical kinase assays were conducted using Eurofins’ homogeneous time-resolved fluorescence assay. The same panel of kinases was incubated with SJP1602 at a concentration of 1 µM, and the activity of lipid and atypical kinases was measured using this assay.

EGFR(L858R)(h) = target: T2, EGFR(L858R)(h) (Homo sapiens, UniProt P00533, L858R); details: read-out: residual kinase activity EGFR(L858R)(h)
T2 construct: purchased Eurofins KinaseProfiler
Procedure: as §1

FGFR4(h) = target: T3, FGFR4(h) (Homo sapiens, UniProt P22455); details: read-out: residual kinase activity FGFR4(h)
T3 construct: purchased Eurofins KinaseProfiler
T3 sequence (P22455 22-802): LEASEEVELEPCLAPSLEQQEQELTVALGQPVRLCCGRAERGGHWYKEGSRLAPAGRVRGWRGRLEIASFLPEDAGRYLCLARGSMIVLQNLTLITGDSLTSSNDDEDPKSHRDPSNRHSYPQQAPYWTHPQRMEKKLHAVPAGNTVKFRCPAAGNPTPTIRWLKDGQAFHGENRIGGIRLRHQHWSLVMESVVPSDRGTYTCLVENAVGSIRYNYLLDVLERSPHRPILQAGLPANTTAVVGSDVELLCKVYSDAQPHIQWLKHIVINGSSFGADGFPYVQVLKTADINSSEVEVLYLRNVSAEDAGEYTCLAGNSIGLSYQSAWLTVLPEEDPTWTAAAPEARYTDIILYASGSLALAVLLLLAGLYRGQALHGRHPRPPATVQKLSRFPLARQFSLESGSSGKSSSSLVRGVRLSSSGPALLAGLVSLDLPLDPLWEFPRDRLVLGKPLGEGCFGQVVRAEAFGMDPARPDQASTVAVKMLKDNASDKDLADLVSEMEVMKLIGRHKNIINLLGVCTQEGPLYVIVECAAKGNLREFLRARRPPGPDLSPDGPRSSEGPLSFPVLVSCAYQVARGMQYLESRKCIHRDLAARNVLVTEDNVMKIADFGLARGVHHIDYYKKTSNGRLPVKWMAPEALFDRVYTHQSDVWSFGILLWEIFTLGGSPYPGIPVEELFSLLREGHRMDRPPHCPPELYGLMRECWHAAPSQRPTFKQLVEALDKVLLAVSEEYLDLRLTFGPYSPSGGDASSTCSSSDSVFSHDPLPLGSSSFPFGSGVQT
Procedure: as §1

Hck(h) = target: T4, Hck(h) (Homo sapiens, UniProt P08631); details: read-out: residual kinase activity Hck(h)
T4 construct: purchased Eurofins KinaseProfiler
T4 sequence (P08631 whole entry): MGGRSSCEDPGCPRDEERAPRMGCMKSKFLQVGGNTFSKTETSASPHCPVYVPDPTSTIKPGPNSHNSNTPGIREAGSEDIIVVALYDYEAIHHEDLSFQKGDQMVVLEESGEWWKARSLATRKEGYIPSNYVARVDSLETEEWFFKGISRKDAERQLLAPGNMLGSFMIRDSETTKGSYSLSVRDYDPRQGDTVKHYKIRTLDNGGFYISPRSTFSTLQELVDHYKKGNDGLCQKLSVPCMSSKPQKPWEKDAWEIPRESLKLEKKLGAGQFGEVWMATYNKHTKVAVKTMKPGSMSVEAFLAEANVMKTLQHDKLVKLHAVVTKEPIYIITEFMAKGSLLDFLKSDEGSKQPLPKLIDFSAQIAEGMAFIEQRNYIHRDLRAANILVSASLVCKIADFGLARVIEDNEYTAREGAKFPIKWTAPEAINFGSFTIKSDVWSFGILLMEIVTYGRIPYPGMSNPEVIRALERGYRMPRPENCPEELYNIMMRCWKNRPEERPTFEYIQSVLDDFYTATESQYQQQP
Procedure: as §1

IGF-1R(h), activated = target: T5, IGF-1R(h), activated (Homo sapiens, UniProt P08069); details: 1 µM
T5 construct: purchased Eurofins KinaseProfiler
Procedure: as §1

IR(h) = target: T6, IR(h) (Homo sapiens, UniProt P06213); details: read-out: residual kinase activity IR(h)
T6 construct: purchased Eurofins KinaseProfiler
Procedure: as §1

PDGFRα(h) = target: T7, PDGFRα(h) (Homo sapiens, UniProt P16234); details: read-out: residual kinase activity PDGFRα(h)
T7 construct: purchased Eurofins KinaseProfiler
T7 sequence (P16234 24-1089): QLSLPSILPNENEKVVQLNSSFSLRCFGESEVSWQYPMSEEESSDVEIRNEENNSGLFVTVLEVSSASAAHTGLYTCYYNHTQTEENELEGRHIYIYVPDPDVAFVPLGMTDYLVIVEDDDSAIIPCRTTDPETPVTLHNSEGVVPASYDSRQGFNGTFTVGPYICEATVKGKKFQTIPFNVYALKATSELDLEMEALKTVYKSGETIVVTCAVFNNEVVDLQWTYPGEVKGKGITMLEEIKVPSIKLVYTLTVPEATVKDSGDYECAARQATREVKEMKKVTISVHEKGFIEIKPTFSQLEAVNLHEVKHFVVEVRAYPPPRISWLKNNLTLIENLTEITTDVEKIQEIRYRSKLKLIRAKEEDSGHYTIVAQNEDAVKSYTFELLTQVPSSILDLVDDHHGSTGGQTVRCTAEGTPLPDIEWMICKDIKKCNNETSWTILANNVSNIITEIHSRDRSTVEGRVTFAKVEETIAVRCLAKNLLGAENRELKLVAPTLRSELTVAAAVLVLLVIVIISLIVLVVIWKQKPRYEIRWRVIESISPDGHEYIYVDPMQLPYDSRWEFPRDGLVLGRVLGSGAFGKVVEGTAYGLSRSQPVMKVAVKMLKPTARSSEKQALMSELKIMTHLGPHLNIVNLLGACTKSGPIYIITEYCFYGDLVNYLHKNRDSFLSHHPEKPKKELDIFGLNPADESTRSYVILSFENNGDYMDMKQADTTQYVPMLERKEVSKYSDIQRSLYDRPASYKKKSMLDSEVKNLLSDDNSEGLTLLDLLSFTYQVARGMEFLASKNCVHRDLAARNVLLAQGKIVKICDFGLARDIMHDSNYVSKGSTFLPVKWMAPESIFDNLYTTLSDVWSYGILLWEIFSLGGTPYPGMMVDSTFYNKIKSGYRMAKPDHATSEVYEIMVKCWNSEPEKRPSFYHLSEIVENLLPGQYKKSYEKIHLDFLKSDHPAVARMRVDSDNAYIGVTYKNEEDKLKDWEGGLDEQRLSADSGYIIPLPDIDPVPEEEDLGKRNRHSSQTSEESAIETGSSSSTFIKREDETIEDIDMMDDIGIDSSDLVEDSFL
Procedure: as §1

[1] = target: T8, PI3 Kinase (p110d/p85a)(h) (Homo sapiens, UniProt O00329); details: read-out: residual kinase activity PI3 Kinase (p110d/p85a)(h)
T8 construct: purchased Eurofins KinaseProfiler
Procedure: as §1

PKCε(h) = target: T9, PKCε(h) (Homo sapiens, UniProt Q02156); details: read-out: residual kinase activity PKCε(h)
T9 construct: purchased Eurofins KinaseProfiler
T9 sequence (Q02156 1-737): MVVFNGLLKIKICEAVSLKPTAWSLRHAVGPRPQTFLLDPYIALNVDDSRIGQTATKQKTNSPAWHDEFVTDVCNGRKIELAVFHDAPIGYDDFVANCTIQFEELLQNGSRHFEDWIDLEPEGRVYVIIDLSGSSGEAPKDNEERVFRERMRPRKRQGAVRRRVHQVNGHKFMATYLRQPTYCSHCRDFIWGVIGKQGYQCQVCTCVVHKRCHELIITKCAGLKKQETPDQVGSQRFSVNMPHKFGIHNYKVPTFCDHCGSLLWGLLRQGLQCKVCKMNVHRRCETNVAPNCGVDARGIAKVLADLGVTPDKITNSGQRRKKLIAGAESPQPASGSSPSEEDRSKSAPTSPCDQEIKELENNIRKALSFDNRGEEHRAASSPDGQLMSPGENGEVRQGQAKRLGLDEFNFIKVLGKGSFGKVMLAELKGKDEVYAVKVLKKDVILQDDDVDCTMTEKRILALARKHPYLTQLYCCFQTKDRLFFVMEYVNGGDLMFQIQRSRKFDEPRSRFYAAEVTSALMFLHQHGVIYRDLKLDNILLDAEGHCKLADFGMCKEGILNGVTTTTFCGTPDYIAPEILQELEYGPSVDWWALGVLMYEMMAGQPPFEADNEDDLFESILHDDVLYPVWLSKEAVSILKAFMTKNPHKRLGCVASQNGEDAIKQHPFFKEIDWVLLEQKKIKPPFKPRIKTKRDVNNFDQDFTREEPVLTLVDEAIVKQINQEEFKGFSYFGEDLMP
Procedure: as §1

Pyk2(h) = target: T10, Pyk2(h) (Homo sapiens, UniProt Q14289); details: read-out: residual kinase activity Pyk2(h)
T10 construct: purchased Eurofins KinaseProfiler
Procedure: as §1

Ros(h) = target: T11, Ros(h) (Homo sapiens, UniProt P08922); details: read-out: residual kinase activity Ros(h)
T11 construct: purchased Eurofins KinaseProfiler
T11 sequence (P08922 28-2347): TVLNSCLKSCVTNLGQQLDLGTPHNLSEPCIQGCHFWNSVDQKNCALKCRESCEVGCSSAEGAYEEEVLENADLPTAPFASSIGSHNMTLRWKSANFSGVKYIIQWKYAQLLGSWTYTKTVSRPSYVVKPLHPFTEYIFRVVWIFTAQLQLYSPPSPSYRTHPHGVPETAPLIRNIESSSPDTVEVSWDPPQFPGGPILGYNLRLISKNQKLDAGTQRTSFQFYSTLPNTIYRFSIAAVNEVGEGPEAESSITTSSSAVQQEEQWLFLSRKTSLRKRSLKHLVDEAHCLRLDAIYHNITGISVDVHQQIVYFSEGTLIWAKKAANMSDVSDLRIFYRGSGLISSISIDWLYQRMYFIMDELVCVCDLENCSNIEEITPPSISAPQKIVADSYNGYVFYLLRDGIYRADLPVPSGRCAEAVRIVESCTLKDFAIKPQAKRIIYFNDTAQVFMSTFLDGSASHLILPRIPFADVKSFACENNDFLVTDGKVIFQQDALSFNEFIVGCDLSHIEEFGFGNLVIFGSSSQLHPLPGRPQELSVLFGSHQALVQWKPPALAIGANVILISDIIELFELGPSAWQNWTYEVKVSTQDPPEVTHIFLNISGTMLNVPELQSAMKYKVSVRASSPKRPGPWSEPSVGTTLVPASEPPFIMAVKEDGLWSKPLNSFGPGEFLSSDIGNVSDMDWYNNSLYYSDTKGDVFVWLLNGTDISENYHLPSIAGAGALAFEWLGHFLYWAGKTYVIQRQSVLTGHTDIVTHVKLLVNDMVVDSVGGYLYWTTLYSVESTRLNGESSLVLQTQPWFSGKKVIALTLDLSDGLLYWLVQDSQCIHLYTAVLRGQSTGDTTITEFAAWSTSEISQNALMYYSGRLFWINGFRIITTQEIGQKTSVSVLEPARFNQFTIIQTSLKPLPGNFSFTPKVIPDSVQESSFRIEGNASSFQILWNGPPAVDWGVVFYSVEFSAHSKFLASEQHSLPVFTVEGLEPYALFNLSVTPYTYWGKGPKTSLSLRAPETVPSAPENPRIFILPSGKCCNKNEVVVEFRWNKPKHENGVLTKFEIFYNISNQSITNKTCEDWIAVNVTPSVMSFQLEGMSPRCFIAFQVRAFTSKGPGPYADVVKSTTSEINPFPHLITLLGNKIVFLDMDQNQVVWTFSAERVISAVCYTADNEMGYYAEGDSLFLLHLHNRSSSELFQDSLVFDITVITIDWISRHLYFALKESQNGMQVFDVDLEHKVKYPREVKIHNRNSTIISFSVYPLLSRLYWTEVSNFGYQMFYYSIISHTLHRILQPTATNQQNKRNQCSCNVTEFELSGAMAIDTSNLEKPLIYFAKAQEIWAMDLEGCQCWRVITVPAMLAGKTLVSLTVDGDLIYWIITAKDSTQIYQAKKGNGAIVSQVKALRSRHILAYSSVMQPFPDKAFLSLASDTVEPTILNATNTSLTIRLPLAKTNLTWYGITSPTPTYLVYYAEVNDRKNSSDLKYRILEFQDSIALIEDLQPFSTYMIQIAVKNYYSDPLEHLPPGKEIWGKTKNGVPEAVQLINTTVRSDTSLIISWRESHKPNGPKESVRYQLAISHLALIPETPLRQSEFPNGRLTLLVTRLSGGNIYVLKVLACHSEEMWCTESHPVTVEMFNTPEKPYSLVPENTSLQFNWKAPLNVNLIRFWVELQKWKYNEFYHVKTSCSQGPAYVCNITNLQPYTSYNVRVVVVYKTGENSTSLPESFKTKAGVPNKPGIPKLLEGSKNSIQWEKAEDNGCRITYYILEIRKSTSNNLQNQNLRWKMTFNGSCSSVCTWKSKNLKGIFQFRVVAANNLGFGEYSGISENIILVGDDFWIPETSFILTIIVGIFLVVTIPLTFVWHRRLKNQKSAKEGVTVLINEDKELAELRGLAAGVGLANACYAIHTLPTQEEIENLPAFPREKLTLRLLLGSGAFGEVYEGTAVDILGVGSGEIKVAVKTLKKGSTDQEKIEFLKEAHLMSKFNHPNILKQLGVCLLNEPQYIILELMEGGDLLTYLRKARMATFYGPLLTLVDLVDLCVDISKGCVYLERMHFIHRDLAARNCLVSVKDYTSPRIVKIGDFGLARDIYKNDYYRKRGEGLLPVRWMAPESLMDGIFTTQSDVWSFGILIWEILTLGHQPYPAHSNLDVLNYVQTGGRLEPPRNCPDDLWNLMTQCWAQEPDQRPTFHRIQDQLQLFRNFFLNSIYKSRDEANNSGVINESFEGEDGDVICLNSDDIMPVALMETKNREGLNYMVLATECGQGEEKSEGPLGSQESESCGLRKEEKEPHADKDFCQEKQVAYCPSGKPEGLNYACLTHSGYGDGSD
Procedure: as §1

TrkC(h) = target: T12, TrkC(h) (Homo sapiens, UniProt Q16288); details: read-out: residual kinase activity TrkC(h)
T12 construct: purchased Eurofins KinaseProfiler
Procedure: as §1

ZAP-70(h) = target: T13, ZAP-70(h) (Homo sapiens, UniProt P43403); details: read-out: residual kinase activity ZAP-70(h)
T13 construct: purchased Eurofins KinaseProfiler
T13 sequence (P43403 1-619): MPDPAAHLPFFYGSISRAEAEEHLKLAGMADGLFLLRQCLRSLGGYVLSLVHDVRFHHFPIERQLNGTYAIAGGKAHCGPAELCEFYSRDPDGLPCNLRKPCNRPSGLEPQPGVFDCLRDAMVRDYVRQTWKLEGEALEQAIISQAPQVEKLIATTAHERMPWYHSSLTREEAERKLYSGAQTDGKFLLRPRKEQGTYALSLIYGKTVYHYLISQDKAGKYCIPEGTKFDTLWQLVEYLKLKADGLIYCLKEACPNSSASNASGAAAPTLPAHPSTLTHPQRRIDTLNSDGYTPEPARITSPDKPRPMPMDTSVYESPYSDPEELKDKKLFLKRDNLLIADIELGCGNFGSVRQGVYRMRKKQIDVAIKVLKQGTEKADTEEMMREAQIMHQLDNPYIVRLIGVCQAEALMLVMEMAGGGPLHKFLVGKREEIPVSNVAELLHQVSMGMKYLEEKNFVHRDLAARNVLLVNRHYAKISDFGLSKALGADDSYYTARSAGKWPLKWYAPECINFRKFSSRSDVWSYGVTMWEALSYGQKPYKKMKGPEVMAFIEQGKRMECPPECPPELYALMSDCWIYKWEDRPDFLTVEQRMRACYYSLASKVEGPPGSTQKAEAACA
Procedure: as §1

CONC(=O)c1ccccc1Nc1cc(Nc2cc(C)nn2C(C)C)ncc1Cl [GSK2256098]
remaining activity at 1 µM (ATR/ATRIP(h)): 101%
remaining activity at 1 µM (EGFR(L858R)(h)): 33%
remaining activity at 1 µM (FGFR4(h)): 104%
remaining activity at 1 µM (Hck(h)): 100%
residual kinase activity IGF-1R(h), activated (IGF-1R(h), activated): 108
remaining activity at 1 µM (IR(h)): 105%
remaining activity at 1 µM (PDGFRα(h)): 101%
remaining activity at 1 µM [1]: 115%
remaining activity at 1 µM (PKCε(h)): 112%
remaining activity at 1 µM (Pyk2(h)): 60%
remaining activity at 1 µM (Ros(h)): 103%
remaining activity at 1 µM (TrkC(h)): 104%
remaining activity at 1 µM (ZAP-70(h)): 105%

CNC(=O)c1cccc(C)c1Nc1nc(Nc2ccc(N3CCN(C4C5CC6CC4CC(O)(C6)C5)CC3)cc2OC)ncc1C(F)(F)F (stereo not drawn) [SJP1602, 2-((2-((4-(4-((2s,5r)-5-hydroxyadamantan-2-yl)piperazin-1-yl)-2-methoxyphenyl)amino)-5-(trifluoromethyl)pyrimidin-4-yl)amino)-N,3-dimethylbenzamide]
remaining activity at 1 µM (ATR/ATRIP(h)): 97%
remaining activity at 1 µM (EGFR(L858R)(h)): 133%
remaining activity at 1 µM (FGFR4(h)): 102%
remaining activity at 1 µM (Hck(h)): 105%
residual kinase activity IGF-1R(h), activated (IGF-1R(h), activated): 105
remaining activity at 1 µM (IR(h)): 103%
remaining activity at 1 µM (PDGFRα(h)): 97%
remaining activity at 1 µM [1]: 91%
remaining activity at 1 µM (PKCε(h)): 103%
remaining activity at 1 µM (Pyk2(h)): 4%
remaining activity at 1 µM (Ros(h)): 104%
remaining activity at 1 µM (TrkC(h)): 120%
remaining activity at 1 µM (ZAP-70(h)): 124%

CNC(=O)c1ccc(Nc2ncc(C(F)(F)F)c(NCc3nccnc3N(C)S(C)(=O)=O)n2)cc1 [VS-6063, Defactinib]
remaining activity at 1 µM (ATR/ATRIP(h)): 92%
remaining activity at 1 µM (EGFR(L858R)(h)): 134%
remaining activity at 1 µM (FGFR4(h)): 104%
remaining activity at 1 µM (Hck(h)): 99%
residual kinase activity IGF-1R(h), activated (IGF-1R(h), activated): 74
remaining activity at 1 µM (IR(h)): 62%
remaining activity at 1 µM (PDGFRα(h)): 79%
remaining activity at 1 µM [1]: 88%
remaining activity at 1 µM (PKCε(h)): 98%
remaining activity at 1 µM (Pyk2(h)): 6%
remaining activity at 1 µM (Ros(h)): 106%
remaining activity at 1 µM (TrkC(h)): 13%
remaining activity at 1 µM (ZAP-70(h)): 139%
